Assay results from ChEMBL document CHEMBL1208698, “Synthesis of novel alpha-pyranochalcones and pyrazoline derivatives as Plasmodium falciparum growth inhibitors” (Bioorg Med Chem Lett, 2010).
Values after ≈ are worked out from the molar mass of the structure shown.

How the values were obtained:
[1] = test system: Plasmodium falciparum; assay: Resistance index, ratio of IC50 for Plasmodium falciparum 3D7 to IC50 for Plasmodium falciparum RKL9; type: functional
[2] = test system: Plasmodium falciparum; assay: Antimalarial activity against chloroquine-sensitive Plasmodium falciparum 3D7 infected in human erythrocyte after 48 h by SYBR-Green-1 assay; type: functional, organism-based; conditions: 3D7, 48 h
[3] = Cytotoxicity against human HeLa cells after 24 to 48 hrs by MTT assay; type: cell-based; conditions: read-out: TC50 (the source's name)
[4] = test system: Plasmodium falciparum; assay: Antimalarial activity against chloroquine-resistant Plasmodium falciparum RKL9 infected in human erythrocyte after 48 h by SYBR-Green-1 assay; type: functional, organism-based; conditions: RKL9, 48 h
[5] = Therapeutic index, ratio of TC50 for human HeLa cells to IC50 for Plasmodium falciparum RKL9; type: cell-based; conditions: read-out: TI

SMILES	IC50 [2] [µg/mL]	Ratio IC50 [1]	IC80 [2] [µg/mL]	CC50 [3] [µg/mL]	IC50 [4] [µg/mL]	selectivity ratio [5]
COc1cc(/C=C/C(=O)c2cc3ccccc3oc2=O)cc(OC)c1OC	3.1 (≈ 8.46 µM)	1.6	6 (≈ 16.4 µM)	> 100	1.9 (≈ 5.19 µM)	> 50
Cc1cc(=O)oc2ccc(C(=O)/C=C/c3ccccc3Cl)c(O)c12	20 (≈ 58.7 µM)	1.5	25 (≈ 73.4 µM)	–	13.5 (≈ 39.6 µM)	–
C[C@@H]1CC[C@H]2[C@@H](C)C(=O)O[C@@H]3O[C@@]4(C)CC[C@@H]1[C@]32OO4 [ARTEMISININ]	–	–	0.00846 (≈ 0.03 µM)	–	0.00451 (≈ 0.016 µM)	–
COc1ccc(C2CC(c3cc4ccccc4oc3=O)=NN2C(C)=O)cc1OC (stereo not given)	10 (≈ 25.5 µM)	1.1	14 (≈ 35.7 µM)	> 100	9 (≈ 22.9 µM)	> 10
COc1ccc(C2CC(c3cc4ccccc4oc3=O)=NN2c2ccccc2)cc1OC (stereo not given)	10 (≈ 23.4 µM)	1.3	44 (≈ 103 µM)	> 100	7.6 (≈ 17.8 µM)	> 13
CC(=O)N1N=C(c2ccc(O)cc2)CC1c1ccc(F)cc1 (stereo not given)	> 100	–	–	–	–	–
COc1ccc(/C=C/C(=O)c2cc3ccccc3oc2=O)c(OC)c1OC	3.1 (≈ 8.46 µM)	2.8	6.2 (≈ 16.9 µM)	100 (≈ 273 µM)	1.1 (≈ 3 µM)	90.9
COc1ccc(OC)c(/C=C/C(=O)c2ccc3oc(=O)cc(C)c3c2O)c1	> 100	–	–	–	–	–
COc1cccc(/C=C/C(=O)c2cc3ccccc3oc2=O)c1	11 (≈ 35.9 µM)	2.2	24 (≈ 78.4 µM)	> 100	4.9 (≈ 16 µM)	> 20

Now from value to molecule, other results behind:

IC50 [2] [µg/mL]	SMILES	Ratio IC50 [1]	IC80 [2] [µg/mL]	CC50 [3] [µg/mL]	IC50 [4] [µg/mL]	selectivity ratio [5]
26.7 (≈ 79.4 µM)	COc1ccc(/C=C/C(=O)c2cc3ccccc3oc2=O)cc1OC	–	100 (≈ 297 µM)	–	–	–
> 100	COc1ccc(/C=C/C(=O)c2cc3ccccc3oc2=O)cc1	–	–	–	–	–
> 100	COc1ccccc1/C=C/C(=O)c1cc2ccccc2oc1=O	–	–	–	–	–
2.7 (≈ 8.03 µM)	COc1ccc(OC)c(/C=C/C(=O)c2cc3ccccc3oc2=O)c1	–	11.3 (≈ 33.6 µM)	–	–	–
> 100	COc1cc(OC)c(OC)cc1/C=C/C(=O)c1cc2ccccc2oc1=O	–	–	–	–	–
